In patent US11040106B2, “Conjugates of kinase inhibitors and cyanine dyes” (priority 2018, dated 2021):
“Also recorded” adds a separate entry of the source.

How the values were obtained:
[1] = tested on: U87-MG (Glioblastoma) cells; test: Light and dark toxicity on U87-MG cells; type: cell-based, human
HUVEC = test: Light and dark toxicity on HUVEC; type: cell-based; details: 1 h incubation, 10 minutes irradiation
Source text: HUVEC cells are non-carcinogentic, “normal” […] cells.

[2] = tested on: U87-MG (Glioblastoma) cells as compared to HUVEC (normal cells); test: Uptake by U87-MG cells as compared to HUVEC; type: cell-based, human
HEPG2 cells = test: Cytotoxicity (cell viability, MTT assay) on HEPG2 cells; type: cell-based; details: HEPG2 cells (liver cancer)
Method: Approximately 5000 HEPG2 cells/well were seeded on 96 well plate containing 10% fetal bovine serum. Cells were allowed to adhere overnight before test compounds were added. Stock solutions of 1a (0.02 M in DMSO) were diluted with protein-free medium (PFHM-II) to make desired final concentrations varying from 0.01 to 80 μM. The cells were incubated with the desired concentration for 48 h. The cell viabilities were calculated using MTT assay. Briefly, 20 μL of 3-(4,5-dimethylthiazol-2-yl)-2,5-diphenyltetrazolium bromide MTT (5 mg/mL, in Hank's balanced salt solution) were added and the cells were incubated for an additional 3.5 h. The medium was then removed, and […] of DMSO was added to dissolve the formazan crystal formed. The optical density of each well (at 570 nm) was measured with a BioTek Synergy 4 Microplate Reader. The viability of each cell line in response to the treatment with tested compounds was calculated as: % dead cells=100−(OD treated/OD control)×100.

U87-MG cells = test: Cytotoxicity (cell viability) on U87-MG cells; type: cell-based
K562 leukemia cells = test: Cytotoxicity (cell viability) on K562 cells; type: cell-based
[3] = tested on: MDA-MB-231 “triple negative” breast cancer cells; test: Cytotoxicity (cell viability) on MDA-MB-231 cells; type: cell-based; details: MDA-MB-231 (breast cancer cells)

Compound	light versus dark toxicity ([1]; 1, 2, 4 and 6 h incubation, 10 mins irradiation)	light versus dark toxicity ([1]; 1 h incubation, irradiation 5, 10, 15, 20 minutes)	phototoxic effect on normal cells (HUVEC)	uptake by U87-MG cells compared to HUVEC [2]	cytotoxicity compared with parent dye, parent kinase inhibitor (and their mixture) (HEPG2 cells)	cytotoxicity compared with parent dye, parent kinase inhibitor (and their mixture) (U87-MG cells; U87-MG cells (glioblastoma))	cytotoxicity compared with ICG-COOH conjugate (U87-MG cells; U87-MG, 24 and 48 h)	cytotoxicity compared with parent dye, parent kinase inhibitor (and their mixture) (K562 leukemia cells)	cytotoxicity compared with parent dye, parent kinase inhibitor (and their mixture) [3]
CC1(C)C(=CC=C2CCCC(C=CC3=[N+](CCCCCC(=O)O)c4ccc(I)cc4C3(C)C)=C2Cl)N(CCCCCC(=O)O)c2ccc(I)cc21 [Compound 2aa]	Light toxicity was more than light in every case	kills the cells more in light than in dark	does not significantly kill normal cells	the cancer cells uptake more of the compound					
CC(=O)c1c(C)c2cnc(Nc3ccc(N4CCN(C(=O)CCCCCN5/C(=C/C=C6\CCCC(/C=C/C7=[N+](CCCCCC(=O)[O-])c8ccccc8C7(C)C)=C6Cl)C(C)(C)c6ccccc65)CC4)cn3)nc2n(C2CCCC2)c1=O [Compound 1b]				localizes more in U87-MG cells than HUVEC cells	more found to be toxic than individual 1, b or a combination of 1+b; also recorded: significantly more toxic than the parent dye, the parent kinase inhibitor, or a mixture of the dye and kinase inhibitor	more found to be toxic than individual 1, b or a combination of 1+b; also recorded: significantly more toxic than the parent dye, the parent kinase inhibitor, or a mixture of the dye and kinase inhibitor	more toxic than ICG-COOH-b	more found to be toxic than individual 1, b or a combination of 1+b; also recorded: significantly more toxic than the parent dye, the parent kinase inhibitor, or a mixture of the dye and kinase inhibitor	more toxic than 1 and b; also recorded: more toxic than b or 1
